Laboratory results reported in patent publication US9439857B2, “Foam containing benzoyl peroxide” (Foamix Pharmaceuticals Ltd., priority 2007, dated 2016).

System: skin hydration level
Assay: Skin hydration, Corneometer CM 825
Assay type: in vivo, human
Details: BPO-047 variants, 8% glycerin, 2% sodium PCA
Procedure: Healthy subjects were applied with single dose of formulations as shown in Example 14. Skin hydration is measured using a Corneometer® CM 825 instrument. (Courage+Khazaka, Koln, Germany). The measuring principle of the Corneometer® CM 825 is based on capacitance measurement of dielectric medium. Any change in the dielectric constant due to skin surface hydration alters the capacitance of a measuring capacitor. It is capable of detecting even slight changes in the skin hydration level.
Skin hydration level is assessed at baseline (fifteen minutes after each subject washed the left and right forearms) with the Corneometer® CM 825. The formulations are applied in designated chambers under occlusion for 6 hours which are then removed and the skin cleaned. Hydration is then measured one hour later.
Study protocol: The study was performed in a temperature controlled room (20-24° C.). Subjects washed their arms with water (no soap) and dried their arms with dry paper towel. Formulations were applied using test chambers. The location of each chamber within the stripe was marked once applied (maximum of 3 stripes on each arm). Each stripe contained only one formulation. One stripe served as a control, non treated area. […] Skin hydration level was assessed at baseline T=0 (minimum 15 minutes following rinse), using the Corneometer® CM 825, and tested based on study design. […]

Compound | hydration effect (Corneometer)
O=C1CCC(C(=O)[O-])N1.[Na+] (centres unmarked) [Sodium PCA, sodium salt of 2-pyrrolidone-5-carboxylic acid] | increases hydration but to a lesser extent
OCC(O)CO [glycerin] | main contributor to the hydration effect
